Test results as given in ChEMBL document CHEMBL1201862, “PubChem BioAssay data set” (2004).
Calls of active or inactive are those of the source.

Experiments:
[1] = cytotoxicity in HEK-293T cells, dose response, cytotoxicity control for BCR NF-kB inhibitor project, luminescence, B-cell screen hits (AID 489021); assay type: functional, cell-based;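 further: HEK-293T cells carrying an NF-kB luciferase reporter; cells exposed to compound for about 14 hours before viability readout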
[2] = target: Cytochrome P450 2D6 (Homo sapiens, UniProt P10635);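 further: CYP2D6 member of a cytochrome P450 panel assay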
[3] = Luminescence Cell-Based Dose Retest to Confirm Inhibitors of Cancer Stem Cells. [Related pubchem assays (depositor defined):AID2717, AID2721]; assay type: functional; settings: Homo sapiens
[4] = inhibition of K1F phage lysis, E. coli UTI89, bacterial capsule biogenesis inhibitors, alamar blue (AID 488966); assay type: functional
[5] = target: Induced myeloid leukemia cell differentiation protein Mcl-1 (Homo sapiens, UniProt Q07820); assay type: functional
Chain of Induced myeloid leukemia cell differentiation protein Mcl-1 (Q07820 whole entry): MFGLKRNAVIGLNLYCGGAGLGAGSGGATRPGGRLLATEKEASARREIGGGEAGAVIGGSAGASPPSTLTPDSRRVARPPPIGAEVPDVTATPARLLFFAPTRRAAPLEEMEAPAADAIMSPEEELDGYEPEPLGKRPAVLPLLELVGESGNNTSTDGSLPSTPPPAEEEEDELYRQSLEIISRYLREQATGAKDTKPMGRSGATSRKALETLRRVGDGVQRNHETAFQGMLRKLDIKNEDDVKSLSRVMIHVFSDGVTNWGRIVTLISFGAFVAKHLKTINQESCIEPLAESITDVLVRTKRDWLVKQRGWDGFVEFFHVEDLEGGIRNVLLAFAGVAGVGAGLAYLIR

[6] = target: C-C chemokine receptor type 6 (Homo sapiens, UniProt P51684); assay: CCR6 receptor antagonists, dose response, cell-based, luminescent beta-arrestin readout (AID 504728); assay type: functional
[7] = target: Beta-galactosidase (Escherichia coli, UniProt Q8VNN2); assay: beta-galactosidase enzyme inhibitors and activators, dose response, artefact control for CCR6 antagonist project, biochemical, E. coli enzyme, set 3 (AID 504712); assay type: functional
[8] = target: Eukaryotic translation initiation factor 4E (Mus musculus, UniProt P63073); assay: eIF4E–eIF4G protein interaction inhibitors, dose response, biochemical, TR-FRET (AID 855); assay type: functional;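 further: potency for disrupting eIF4E binding to eIF4GI seen as loss of FRET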
Chain of Eukaryotic translation initiation factor 4E (P63073 whole entry): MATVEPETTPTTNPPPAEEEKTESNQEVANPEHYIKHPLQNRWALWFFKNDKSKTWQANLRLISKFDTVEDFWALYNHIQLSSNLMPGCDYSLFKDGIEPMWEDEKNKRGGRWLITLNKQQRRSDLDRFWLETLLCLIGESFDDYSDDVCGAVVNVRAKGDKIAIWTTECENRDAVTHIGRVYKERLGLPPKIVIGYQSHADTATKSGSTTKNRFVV

[9] = target: Acyl-homoserine lactone acylase PvdQ (Pseudomonas aeruginosa (strain LESB58), UniProt Q9I194); assay: P. aeruginosa PvdQ acylase inhibitors, dose response, biochemical, fluorescence, plate reader and imaging, cherry-picks (AID 493231)
[10] = target: T1, Eukaryotic translation initiation factor 2-alpha kinase 3 (Homo sapiens, UniProt Q9NZJ5); assay: Dose response cell-based high-throughput screening assay to measure PERK inhibition. [Related pubchem assays: 1416 ]; assay type: functional
T1 sequence (Q9NZJ5 whole entry): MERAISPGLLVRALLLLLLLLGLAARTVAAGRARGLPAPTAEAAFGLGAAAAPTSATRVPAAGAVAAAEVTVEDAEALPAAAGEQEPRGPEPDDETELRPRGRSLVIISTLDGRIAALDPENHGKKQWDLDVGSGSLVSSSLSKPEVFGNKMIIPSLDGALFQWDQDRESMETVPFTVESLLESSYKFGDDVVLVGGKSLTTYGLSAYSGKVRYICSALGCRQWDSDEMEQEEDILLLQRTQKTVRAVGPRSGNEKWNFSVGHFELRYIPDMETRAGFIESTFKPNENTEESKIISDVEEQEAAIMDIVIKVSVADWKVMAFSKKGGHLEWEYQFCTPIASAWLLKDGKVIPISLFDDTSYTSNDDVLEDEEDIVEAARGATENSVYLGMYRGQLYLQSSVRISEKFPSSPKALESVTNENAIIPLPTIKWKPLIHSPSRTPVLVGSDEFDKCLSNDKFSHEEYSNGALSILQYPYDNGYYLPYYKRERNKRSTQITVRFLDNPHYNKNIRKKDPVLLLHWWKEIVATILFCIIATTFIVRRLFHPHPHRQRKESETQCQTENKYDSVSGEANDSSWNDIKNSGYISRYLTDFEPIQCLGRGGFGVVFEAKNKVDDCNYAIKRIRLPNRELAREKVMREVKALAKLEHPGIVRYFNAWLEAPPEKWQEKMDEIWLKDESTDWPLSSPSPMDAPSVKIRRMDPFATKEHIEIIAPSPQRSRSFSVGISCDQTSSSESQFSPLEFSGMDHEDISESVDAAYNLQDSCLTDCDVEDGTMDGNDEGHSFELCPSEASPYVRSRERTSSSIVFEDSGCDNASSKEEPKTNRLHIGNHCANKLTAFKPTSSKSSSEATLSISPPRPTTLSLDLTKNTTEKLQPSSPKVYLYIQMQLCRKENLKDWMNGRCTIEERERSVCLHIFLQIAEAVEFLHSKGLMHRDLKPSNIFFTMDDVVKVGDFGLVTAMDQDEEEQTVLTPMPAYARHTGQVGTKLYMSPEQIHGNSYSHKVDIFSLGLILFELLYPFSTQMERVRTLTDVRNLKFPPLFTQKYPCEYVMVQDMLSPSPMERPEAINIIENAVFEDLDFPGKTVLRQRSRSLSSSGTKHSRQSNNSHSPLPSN

[11] = target: T1, Eukaryotic translation initiation factor 2-alpha kinase 3; assay: Counterscreen assay for PERK inhibitors: Dose response cell-based high throughput screening assay to measure inhibition of PERK at 6 hours. [Related pubchem assays: 1522, 1416 ]; assay type: functional
[12] = target: Lysosomal acid glucosylceramidase (Homo sapiens, UniProt P04062); assay: Dose response cell-based high throughput screening assay to identify enhancers of beta-glucosidase activity. [Related pubchem assays: 784 ]; assay type: functional
[13] = cells; assay type: functional
[14] = target: X-box-binding protein 1 (Homo sapiens, UniProt P17861); assay type: functional, Cricetulus griseus;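 further: confirmatory dose-response counter-screen serving a CHOP assay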
[15] = target: T2, Melanin-concentrating hormone receptor 1 (Homo sapiens, UniProt Q99705); assay: Fluorescence-based counterscreen for antagonists of the G-protein coupled receptor 7 (GPR7): cell-based high throughput dose response assay to identify antagonists of the melanin-concentrating hormone receptor 1 (MCHR1).; assay type: functional
T2 sequence (Q99705 whole entry): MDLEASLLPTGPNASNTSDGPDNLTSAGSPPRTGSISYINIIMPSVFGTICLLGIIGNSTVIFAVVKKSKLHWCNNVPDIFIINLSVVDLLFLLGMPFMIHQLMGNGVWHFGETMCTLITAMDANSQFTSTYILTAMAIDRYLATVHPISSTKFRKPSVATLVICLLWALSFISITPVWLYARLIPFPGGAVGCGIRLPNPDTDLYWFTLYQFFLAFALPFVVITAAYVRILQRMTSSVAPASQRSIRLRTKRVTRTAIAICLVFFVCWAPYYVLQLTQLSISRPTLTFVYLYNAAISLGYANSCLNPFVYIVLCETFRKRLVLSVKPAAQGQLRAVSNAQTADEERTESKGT

[16] = target: T3, Leucine aminopeptidase (Plasmodium falciparum 3D7, UniProt Q8IL11); assay: P. falciparum M17LAP inhibitors, primary screen, biochemical, fluorogenic H-Leu-NHMec substrate, 1536-well (AID 1619); assay type: functional
T3 sequence (Q8IL11 whole entry): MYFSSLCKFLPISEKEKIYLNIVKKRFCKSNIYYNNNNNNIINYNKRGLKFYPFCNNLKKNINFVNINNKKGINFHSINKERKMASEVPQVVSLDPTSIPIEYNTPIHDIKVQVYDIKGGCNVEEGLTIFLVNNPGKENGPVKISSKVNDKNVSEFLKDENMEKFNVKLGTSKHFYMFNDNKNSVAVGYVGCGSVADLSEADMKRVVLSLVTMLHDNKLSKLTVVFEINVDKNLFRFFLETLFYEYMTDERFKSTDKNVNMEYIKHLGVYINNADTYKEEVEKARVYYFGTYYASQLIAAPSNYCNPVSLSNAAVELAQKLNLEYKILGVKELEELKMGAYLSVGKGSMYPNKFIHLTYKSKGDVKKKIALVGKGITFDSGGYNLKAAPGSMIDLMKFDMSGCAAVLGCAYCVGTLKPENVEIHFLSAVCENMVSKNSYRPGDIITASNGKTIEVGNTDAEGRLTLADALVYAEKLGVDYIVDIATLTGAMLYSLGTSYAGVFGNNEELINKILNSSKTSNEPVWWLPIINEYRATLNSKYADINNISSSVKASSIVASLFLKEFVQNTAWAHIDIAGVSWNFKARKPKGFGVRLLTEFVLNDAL

[17] = target: T4, RNA-binding protein pos-1 (Caenorhabditis elegans, UniProt G5EF15); assay: inhibitors of POS-1/mex-3 RNA binding, dose response, biochemical, fluorescence polarization (AID 1964);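 further: purified POS-1 fused to maltose binding protein made in E. coli; potency of compounds blocking POS-1 binding to fluorescent RNA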
T4 sequence (G5EF15 whole entry): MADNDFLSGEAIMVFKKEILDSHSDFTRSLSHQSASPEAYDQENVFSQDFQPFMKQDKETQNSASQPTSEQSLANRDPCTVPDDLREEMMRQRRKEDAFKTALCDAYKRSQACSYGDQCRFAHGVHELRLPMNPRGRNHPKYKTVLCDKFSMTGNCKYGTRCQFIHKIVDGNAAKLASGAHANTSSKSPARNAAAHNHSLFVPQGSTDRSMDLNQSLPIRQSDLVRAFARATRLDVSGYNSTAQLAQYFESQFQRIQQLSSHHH

[18] = target: T5, SUMO-activating enzyme (Homo sapiens, UniProt Q9UBT2); assay: SUMOylation inhibitor hit validation, confirmation, SUMOylation inhibitor project, biochemical, AlphaScreen (AID 2018); assay type: functional
T5 sequence (Q9UBE0 whole entry): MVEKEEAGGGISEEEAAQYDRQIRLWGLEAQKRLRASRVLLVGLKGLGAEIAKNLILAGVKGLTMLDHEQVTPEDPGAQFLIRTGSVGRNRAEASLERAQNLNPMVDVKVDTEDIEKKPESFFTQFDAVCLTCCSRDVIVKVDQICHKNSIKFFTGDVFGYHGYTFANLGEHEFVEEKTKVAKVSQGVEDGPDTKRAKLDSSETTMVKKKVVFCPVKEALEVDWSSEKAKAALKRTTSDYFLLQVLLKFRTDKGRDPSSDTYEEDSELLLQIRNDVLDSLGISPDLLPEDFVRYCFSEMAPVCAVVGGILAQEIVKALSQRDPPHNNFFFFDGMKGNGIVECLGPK
T5 sequence (Q9UBT2 whole entry): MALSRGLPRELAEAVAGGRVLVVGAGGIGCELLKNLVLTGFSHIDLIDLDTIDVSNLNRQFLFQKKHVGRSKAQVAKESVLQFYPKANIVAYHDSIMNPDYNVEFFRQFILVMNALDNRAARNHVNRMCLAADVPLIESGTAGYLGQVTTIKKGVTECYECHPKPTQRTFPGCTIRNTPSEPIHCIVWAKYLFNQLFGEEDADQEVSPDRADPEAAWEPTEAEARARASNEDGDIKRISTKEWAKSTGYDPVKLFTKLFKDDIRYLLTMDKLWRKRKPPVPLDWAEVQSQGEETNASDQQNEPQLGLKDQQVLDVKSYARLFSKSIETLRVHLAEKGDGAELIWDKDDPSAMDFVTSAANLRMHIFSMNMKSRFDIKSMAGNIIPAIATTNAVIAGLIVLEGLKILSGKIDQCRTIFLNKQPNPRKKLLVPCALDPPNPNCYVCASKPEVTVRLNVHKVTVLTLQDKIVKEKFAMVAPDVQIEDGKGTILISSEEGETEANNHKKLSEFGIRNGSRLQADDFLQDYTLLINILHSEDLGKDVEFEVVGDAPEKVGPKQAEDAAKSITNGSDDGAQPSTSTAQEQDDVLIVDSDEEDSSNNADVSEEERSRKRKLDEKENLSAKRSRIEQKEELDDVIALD

[19] = target: T6, Zinc finger protein mex-5 (Caenorhabditis elegans, UniProt Q9XUB2); assay: MEX-5/TCR-2 RNA interaction inhibitors, dose response, biochemical, C. elegans, fluorescence polarization (AID 1960)
T6 sequence (Q9XUB2 whole entry): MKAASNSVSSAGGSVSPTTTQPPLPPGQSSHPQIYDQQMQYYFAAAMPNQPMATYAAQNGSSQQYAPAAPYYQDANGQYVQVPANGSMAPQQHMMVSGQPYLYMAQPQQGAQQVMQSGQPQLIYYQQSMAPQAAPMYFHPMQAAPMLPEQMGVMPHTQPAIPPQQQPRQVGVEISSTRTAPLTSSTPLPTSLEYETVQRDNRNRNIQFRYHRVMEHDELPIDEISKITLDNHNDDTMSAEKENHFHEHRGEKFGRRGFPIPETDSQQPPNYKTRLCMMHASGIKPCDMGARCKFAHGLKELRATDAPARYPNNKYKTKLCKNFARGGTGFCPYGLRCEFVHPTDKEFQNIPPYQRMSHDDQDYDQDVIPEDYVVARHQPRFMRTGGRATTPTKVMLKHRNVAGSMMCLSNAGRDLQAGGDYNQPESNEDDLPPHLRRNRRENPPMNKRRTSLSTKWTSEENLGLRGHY

[20] = target: T5, SUMO-activating enzyme; assay: inhibitors of in vitro SUMOylation cascade, primary screen, biochemical, HTRF, uHTS (AID 2006); assay type: protein-complex assay
[21] = target: Neuropeptide Y receptor type 2 (Homo sapiens, UniProt P49146); assay: Fluorescence-based counterscreen for agonists of NPY-Y1: cell-based high-throughput dose response assay for agonists of NPY-Y2.; assay type: functional
Chain of Neuropeptide Y receptor type 2 (P49146 whole entry): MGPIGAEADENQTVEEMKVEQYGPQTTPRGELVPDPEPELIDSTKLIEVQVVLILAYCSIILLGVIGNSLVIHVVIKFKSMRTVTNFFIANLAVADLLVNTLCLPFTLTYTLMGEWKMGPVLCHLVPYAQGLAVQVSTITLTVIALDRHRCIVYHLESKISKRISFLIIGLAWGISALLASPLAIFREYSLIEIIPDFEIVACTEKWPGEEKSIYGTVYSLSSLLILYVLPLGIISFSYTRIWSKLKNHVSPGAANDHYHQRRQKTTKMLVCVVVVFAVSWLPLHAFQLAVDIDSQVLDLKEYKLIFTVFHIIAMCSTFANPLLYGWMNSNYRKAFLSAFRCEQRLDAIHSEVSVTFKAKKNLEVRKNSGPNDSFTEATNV

[22] = test system: HEK293; assay: Fluorescence-based counterscreen for potentiators or agonists of NPY-Y1: cell-based high-throughput dose response assay for inhibitors of cyclic nucleotide gated ion channel (CNGC) activity. In this assay, the parental HEK293 cell line transfected with a cyclic-nucleotide gated ion channel (CNGC)-based cAMP sensor is used to measure inhibition of isoproterenol-induced CNGC …; assay type: functional; settings: Homo sapiens
[23] = target: Neuropeptide Y receptor type 1 (Homo sapiens, UniProt P25929); assay: Fluorescence-based dose response cell-based high-throughput screening assay for agonists of NPY-Y1. [Related pubchem assays: 1697 (Screening assay (NPY-Y1 agonists).), 1359 (Screening assay (NPY-Y2 potentiators or agonists).), 1304 (Screening assay (NPY-Y1 potentiators or agonists).), 1704 (Screening assay (CNGC inhibitors).), 1791 (Summary AID.)]; assay type: functional
[24] = target: Metabotropic glutamate receptor 4 (Rattus norvegicus, UniProt P31423); assay: Modulation of the Metabotropic Glutamate Receptor mGluR4: Rat PAM Potency. [Related pubchem assays (depositor defined):AID2437, AID2807]; assay type: functional
[25] = target: T7, Hexokinase HKDC1 (Homo sapiens, UniProt Q2TB90); assay: HKDC1 hexokinase inhibitors, dose response, biochemical, W721R variant (AID 504729); assay type: functional
T7 sequence (Q2TB90 whole entry): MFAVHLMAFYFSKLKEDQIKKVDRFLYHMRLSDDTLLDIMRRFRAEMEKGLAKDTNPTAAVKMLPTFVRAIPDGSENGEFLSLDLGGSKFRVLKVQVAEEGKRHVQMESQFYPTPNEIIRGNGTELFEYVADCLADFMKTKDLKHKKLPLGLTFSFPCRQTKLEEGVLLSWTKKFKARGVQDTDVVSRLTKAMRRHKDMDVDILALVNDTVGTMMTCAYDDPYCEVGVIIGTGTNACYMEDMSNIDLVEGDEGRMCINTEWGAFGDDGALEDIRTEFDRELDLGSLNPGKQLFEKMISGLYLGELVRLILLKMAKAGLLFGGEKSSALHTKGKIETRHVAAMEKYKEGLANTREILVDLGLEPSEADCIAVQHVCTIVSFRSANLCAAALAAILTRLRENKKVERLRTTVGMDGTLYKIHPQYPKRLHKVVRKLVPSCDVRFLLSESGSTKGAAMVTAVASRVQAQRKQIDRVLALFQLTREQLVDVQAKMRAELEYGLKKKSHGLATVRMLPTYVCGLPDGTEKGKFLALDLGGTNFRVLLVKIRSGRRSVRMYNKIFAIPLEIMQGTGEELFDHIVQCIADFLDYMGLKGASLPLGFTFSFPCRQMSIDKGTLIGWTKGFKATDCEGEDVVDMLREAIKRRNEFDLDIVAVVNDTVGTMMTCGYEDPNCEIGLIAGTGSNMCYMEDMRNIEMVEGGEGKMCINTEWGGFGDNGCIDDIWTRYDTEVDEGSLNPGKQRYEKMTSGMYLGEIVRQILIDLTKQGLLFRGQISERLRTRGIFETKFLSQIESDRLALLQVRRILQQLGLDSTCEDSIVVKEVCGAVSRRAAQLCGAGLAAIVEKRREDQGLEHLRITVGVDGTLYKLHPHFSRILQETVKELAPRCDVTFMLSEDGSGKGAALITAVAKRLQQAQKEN

[26] = target: Bcl-2-like protein 10 (Homo sapiens, UniProt Q9HD36); assay: displacers of TR3 peptide from Bcl-B, primary screen, selectivity assay for Bfl-1 inhibitor project, biochemical, fluorescence polarization, FITC-TR3 peptide (AID 748);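 further: fluorescence polarization from a fluorescein-labelled TR3 peptide binding purified Bcl-B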
[27] = target: Estrogen receptor beta (Homo sapiens, UniProt Q92731);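 further: recombinant ER-beta bound to coactivator SRC1 peptide in presence of estradiol agonist; inhibitors block coactivator peptide binding and lower the FRET signal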
[28] = target: T2, Melanin-concentrating hormone receptor 1; assay: Late-stage fluorescence-based counterscreen for antagonists of the G-protein coupled receptor 7 (GPR7): cell-based dose response assay to identify antagonists of the melanin-concentrating hormone receptor 1 (MCHR1). [Related pubchem assays (depositor defined):AID1861, AID1880, AID1952, AID2148, AID2251, AID2257, AID485339]; assay type: functional
[29] = target: Glucose-6-phosphate 1-dehydrogenase (Homo sapiens, UniProt P11413); assay: human G6PD enzyme inhibitors, dose response, selectivity assay for P. falciparum G6PD inhibitor project, biochemical, fluorescence (AID 504792); assay type: functional
[30] = target: Cystic fibrosis transmembrane conductance regulator/Golgi-associated PDZ and coiled-coil motif-containing protein (Homo sapiens, UniProt P13569+Q9HD26); assay: CAL PDZ peptide-binding inhibitors, dose response, biochemical, fluorescence polarization, Cerulean-tagged CAL PDZ, cherry-picks (AID 504773)
Chain of Cystic fibrosis transmembrane conductance regulator/Golgi-associated PDZ and coiled-coil motif-containing protein (P13569 whole entry, other chains not shown): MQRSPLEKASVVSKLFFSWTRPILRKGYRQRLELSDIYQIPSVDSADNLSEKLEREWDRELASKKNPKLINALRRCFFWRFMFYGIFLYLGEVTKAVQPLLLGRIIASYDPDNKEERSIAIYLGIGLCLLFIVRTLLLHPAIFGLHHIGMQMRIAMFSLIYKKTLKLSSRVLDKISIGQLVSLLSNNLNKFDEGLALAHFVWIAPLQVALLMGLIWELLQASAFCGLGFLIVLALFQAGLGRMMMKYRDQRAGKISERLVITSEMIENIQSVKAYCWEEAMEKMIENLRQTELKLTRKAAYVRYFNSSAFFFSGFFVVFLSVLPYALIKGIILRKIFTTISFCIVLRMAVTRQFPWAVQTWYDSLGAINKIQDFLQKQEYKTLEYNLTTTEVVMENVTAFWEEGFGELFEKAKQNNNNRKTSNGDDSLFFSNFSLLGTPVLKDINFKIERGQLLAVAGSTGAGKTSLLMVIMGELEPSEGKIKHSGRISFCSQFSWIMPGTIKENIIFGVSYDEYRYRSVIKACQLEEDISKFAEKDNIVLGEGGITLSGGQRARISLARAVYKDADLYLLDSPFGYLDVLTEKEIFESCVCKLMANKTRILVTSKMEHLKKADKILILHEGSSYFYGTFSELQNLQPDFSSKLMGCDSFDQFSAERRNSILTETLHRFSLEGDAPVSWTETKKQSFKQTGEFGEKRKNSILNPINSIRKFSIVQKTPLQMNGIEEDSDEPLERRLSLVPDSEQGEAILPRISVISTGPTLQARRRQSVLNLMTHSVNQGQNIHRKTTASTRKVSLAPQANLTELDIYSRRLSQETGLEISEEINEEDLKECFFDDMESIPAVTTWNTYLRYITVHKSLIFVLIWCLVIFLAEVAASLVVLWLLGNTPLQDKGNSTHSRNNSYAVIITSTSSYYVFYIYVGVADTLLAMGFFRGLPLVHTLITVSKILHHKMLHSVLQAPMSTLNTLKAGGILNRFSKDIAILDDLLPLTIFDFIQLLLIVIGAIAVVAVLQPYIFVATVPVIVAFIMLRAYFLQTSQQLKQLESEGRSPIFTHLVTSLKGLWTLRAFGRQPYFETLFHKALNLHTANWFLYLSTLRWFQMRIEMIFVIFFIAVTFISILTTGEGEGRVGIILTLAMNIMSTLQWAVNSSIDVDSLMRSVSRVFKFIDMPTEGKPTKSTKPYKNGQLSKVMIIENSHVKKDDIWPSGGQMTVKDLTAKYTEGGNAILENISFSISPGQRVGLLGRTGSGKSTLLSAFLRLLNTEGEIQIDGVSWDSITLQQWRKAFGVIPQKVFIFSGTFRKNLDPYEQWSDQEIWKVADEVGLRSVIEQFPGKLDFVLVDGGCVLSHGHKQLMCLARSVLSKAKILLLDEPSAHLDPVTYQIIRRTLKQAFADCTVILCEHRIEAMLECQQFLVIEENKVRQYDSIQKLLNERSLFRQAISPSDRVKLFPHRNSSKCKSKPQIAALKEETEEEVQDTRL

[31] = target: Nonstructural protein 1 (Influenza A virus, UniProt Q194T2); assay type: functional, Influenza A virus (A/California/07/2009(H1N1))
[32] = target: Heat shock protein HSP 90-alpha (Homo sapiens, UniProt P07900); assay type: functional, organism-based
[33] = human group III sPLA2 inhibitors, dose response, biochemical, QFRET, IC50 (AID 743457);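 further: green fluorescence rise as the enzyme cleaves BODIPY PC-A2 in liposomes; potency for inhibition of the enzyme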

## CCOc1ccc(-n2c(SCC(=O)Nc3ccc4c(c3)OCCO4)nc3c(c2=O)SCC3)cc1
[1]
  IC50: > 80 µM (inactive)
[2]
  AC50: 8.91 µM (inconclusive)

## O=C(N/N=C/c1cccc(O)c1)c1ccc(COc2ccccc2Br)cc1
[3]
  AC50: 4.82 µM (active)
[4]
  IC50: > 150 µM (active)

## COc1ccc(N2C(=O)/C(=C/C=C/c3ccccc3[N+](=O)[O-])C(=O)NC2=S)cc1
[5]
  IC50: 0.73 µM (active)
[6]
  IC50: > 66.6 µM (inactive)
[7]
  IC50: > 66.6 µM (inactive)
[8]
  IC50: 50 µM (inactive)

## OC(c1cccc(Cl)c1)c1nccc2ccccc12 (stereo not given)
[9]
  AC50: 7.66 µM (active)

## Cc1ccc(C)c(OCC(=O)Nc2cc(C(=O)O)cc(C(=O)O)c2)c1
[10]
  EC50: > 55.7 µM (not active)
[11]
  EC50: > 55.7 µM (not active)

## CCCCSc1nnc(-c2ccc(C)cc2)o1
[12]
  EC50: > 50 µM (not active)
[13]
  IC50: 39 µM (active)

## C/N=C1\SC(CC(=O)Nc2ccc(F)cc2F)C(=O)N1/N=C/c1ccc(OC(F)F)c(OC)c1 (stereo not given)
[14]
  Absolute IC50 (XBP1): 10 µM

## CCC(C)CCN1C(Nc2ccccc2)=NC[C@@H]1Cc1ccccc1 (stereo not given in full)
[15]
  IC50: 12.5 µM (not active)

## CC1=C(C#N)C(=O)NC(=O)/C1=C\c1ccc(-c2ccc(C)cc2[N+](=O)[O-])o1
[16]
  IC50: 13.1 µM (active)
[17]
  EC50: 36.4 µM (active)
[18]
  IC50: 5.46 µM (active)
[19]
  EC50: 21.8 µM (active)
[20]
  IC50: 35.6 µM (active)
[5]
  IC50: 2.68 µM (active)
[8]
  IC50: 50 µM (inactive)

## COc1ccc(Nc2oc(/C=C3/SC(=S)N(CC4CCCO4)C3=O)nc2C#N)cc1 (stereo not given)
[21]
  EC50: 12.8 µM (not active)
[22]
  IC50: 11.8 µM (not active)
[23]
  EC50: 13.5 µM (not active)

## O=C(Nc1ccc(N2C(=O)CCC2=O)c(Cl)c1)c1ccccn1
[24]
  EC50: 6.89 µM (active)

## CCOC(=O)c1ccc(NC(=O)CSc2n[nH]c(-c3ccncc3)n2)cc1
[25]
  IC50: 12.1 µM (active)

## c1coc(-c2nn3c(-c4ccco4)nnc3s2)c1
[26]
  IC50: 86.5 µM (inactive)
[27]
  IC50: 24 µM (active)

## Cc1ccc(-n2ncc(Cl)c(OC3CCN(C(=O)OC(C)(C)C)CC3)c2=O)cc1
[28]
  IC50: 5 µM (active)

## COc1ccc2c(c1)c(=Cc1ccc(N(C)C)cc1)c1cc(-c3ccccc3)[n+](C)n12
[29]
  IC50: 74.7 µM (inactive)
[30]
  AC50: > 56 µM (inactive)
[31]
  IC50: 4.56 µM (active)
[32]
  AC50: 3.93 µM (active)
[33]
  IC50: > 40.6 µM (inactive)
